Data: patent US20150190456A1, “USE OF CASPASE 3 ACTIVITY AND ITS INHIBITORS” (THE REGENTS OF THE UNIVERSITY OF COLORADO, priority 2011, published 2015)

Key:
tumor cells = assay: Growth in mice of a small number of tumor cells pre-treated with PGE2; format: in vivo; conditions: about 1000 tumor cells treated with PGE2 versus non-treated cells
Procedure: (§1) Growth of Fluc-labeled tumor cells in vivo was followed through non-invasive bioluminescence imaging using the IVIS200 instrument (Caliper Life Sciences, Hopkinton, Mass). Mice to be imaged were injected with 150 mg/kg of D-luciferin (obtained from Caliper Life Sciences) intraperitoneally in 200 μl of PBS and then anesthetized with continuous flow of isofluorane. Imaging of the mice was carried out 10 minutes later. The time between injection and imaging were kept constant among different batches of mice.
(§2) Different approaches were used to establish tumor growth than traditionally adopted by other studies. In most of the studies by the present inventors, a very small number of Fluc-labeled tumor cells (500-1000 cells each) was injected either alone or together with other unlabeled cells (either tumor cells or fibroblast cells) that are either irradiated or un-irradiated. Tumor growth from these cells was monitored through the quantification of bioluminescence signals emitted from labeled tumor cells using IVIS200 instrument following manufacturer's instructions. In some cases, 500-1000 Fluc labeled tumor cells were injected into (7-9 mm in diameter) tumors that have been established from unlabeled tumor cells.

HCT116 cells = assay: Growth of tumor cells injected intratumorally into established tumors in mice, HCT116; format: in vivo, human; conditions: indomethacin administration
Procedure: as §1
as §2, with “cells. […]” for “cells.”

4T1 cells = assay: Growth of tumor cells injected intratumorally into established tumors in mice, 4T1; format: in vivo, mouse; conditions: indomethacin administration
Procedure: as §1
as §2, with “cells. […]” for “cells.”

Row | Structure (SMILES) | growth of treated tumor cells when injected into mice (tumor cells) | growth of intratumorally injected HCT116 cells (HCT116 cells) | growth of intratumorally injected 4T1 cells (4T1 cells)
1 | CCCCC[C@H](O)/C=C/[C@H]1[C@H](O)CC(=O)[C@@H]1C/C=C\CCCC(=O)O [PGE2, prostaglandin E2] | grow at a faster pace than non-treated cells | – | –
2 | COc1ccc2c(c1)c(CC(=O)O)c(C)n2C(=O)c1ccc(Cl)cc1 [indomethacin] | – | effectively suppressed growth | effectively suppressed growth
